Reference: US20080279866A1, “Induction of immunosuppression by inhibition of ATM” (The Brigham and Women's Hospital, Inc., priority 2006, published 2008)

Key:
[1] = tested on: other PI-3 kinase-like kinase family members; conditions: cited from earlier work
[2] = tested on: graft vs. host disease (GVHD); test: GVHD after BMT: lethally irradiated Balb/c mice given C57BL/6 bone marrow and treated splenocytes; format: in vivo, mouse
Protocol: To test this, Balb/c mice were lethally irradiated one day prior to BMT with C57BL/6 bone marrow. 48 Hours after BMT, mice received splenocytes treated with allogeneic stimulators, allogeneic stimulators and KU55933, or no stimulators and KU55933.

alloreactive T cells = test: Cytokine production of alloreactive T cells stimulated with alloantigen; format: cell-based; conditions: treated with ATM inhibiting agent in addition to alloantigen; preliminary data
[3] = tested on: ATM targets including p53, H2AX and NBS1; conditions: cited from earlier work
C57BL/6 T cells [4] = test: Stimulation of T cells with anti-CD3 and CD28 in the presence of KU-55933 (annexin-V/CFSE flow cytometry); format: cell-based, mouse
Protocol: Cells were then labeled for 20 minutes with 2 μM 5(6)-Carboxyfluorescein diacetate N-succinimidyl ester (CFSE, Sigma-Aldrich) in Hank's balanced salt solution (HBSS, Mediatech, Herndon, Va.). Cells were plated at a concentration of 2-5×10^6/ml in Dulbecco's modified eagle's medium (DMEM (Mediatech) supplemented with 15% heat-inactivated fetal calf serum (Sigma-Aldrich, St. Louis, Mo.), penicillin (100 U/ml), streptomycin (100 μg/ml), 2 mM L-glutamine, 10 mM Hepes, 0.1 mM nonessential amino acids, 1 mM sodium pyruvate (Mediatech) (complete DMEM). Cells were treated with 1 μg/ml anti-CD3 antibody (2C11 (30)) and 1 μg/ml anti-CD28 antibody (37.51, Gross, et al., J. Immunol. 149:380 (1992)). Cells were cultured at 37 C, 5% CO2 for the indicated time. For studies of Atm−/− T cell proliferation in response to mitogens, purified T cells were cultured with 2 μg/ml Concanavalin A or 10 ng/ml PMA and 1 μg/m ionomycin.
Stimulation of T cells in the Presence of KU-55933: T cells were purified from C57BL/6 mice (Jackson Laboratories) and re-suspended at 1.5×10^6 cells/ml in complete DMEM with 1 μg/10^6 cells anti-CD3 and CD28 and the indicated concentration of KU-55933 (KuDos Pharmaceuticals) or the same volume of DMSO (Sigma-Aldrich). Some cultures were in addition treated with 4 mM N-acetyl cysteine (Sigma-Aldrich).
Flow Cytometry: Cells were harvested, washed in HBSS and stained with Annexin-V phycoerythrin (BD Biosciences), or Annexin V-biotin (R&D Systems) in addition to streptavidin conjugated phycoerythrin according to the manufacturer's instructions. Cells were then stained with anti-CD4-APC (RM4-5, BD Biosciences) or anti-CD8-APC (53-6.7 BD Biosciences) and 7-actinomycin D (Sigma-Aldrich) or propidium iodide (Sigma-Aldrich). All analysis was performed using. FloJo software (TreeStar Inc).

Atm deficient T cells = test: Stimulation of Atm deficient T cells with anti-CD3 and CD28 with or without NAC; format: cell-based, mouse; conditions: 2 mM NAC
Text: Mice: Heterozygous 129S6/SvEvTac-Atm^tm1-Awb mice […] were purchased from the Jackson Laboratory (Bar Harbor, Me.). An independently generated Atm knockout mouse model was used to confirm our observations (Borghesani, et al., Proc. Nat'l Acad. Sci. USA 97:3336 (2000)). All mice were housed under microisolator conditions in autoclaved cages and were maintained on irradiated feed and autoclaved acidified drinking water. All sentinel mice housed in the same colony were free of viral antibodies. Four- to 6-week-old mice were used in all experiments.
Purification and Stimulation of T Cells: Splenocytes were harvested from 4-6 week old Atm−/− mice or wild-type littermates bred in our animal facility. In some experiments C57BL/6 mice were used as a source of wild-type T cells. Red blood cells were lysed using ACK lysing buffer (Cambrex, Walkerville, Md.) for 3 minutes at room temperature. In experiments in which T cells were purified, splenocytes were incubated with anti-CD4 (GK1.5, Dialynas, et al., J. Immunol. 131:2445 (1983)) and anti-CD8 (2.43, Sarmiento, et al., J. Immunol. 125:2665 (1980)) antibodies for 30 min at 4° C. Cells were then washed and incubated with magnetic beads conjugated to anti-rat IgG antibody, prior to positive selection by MACS according to the manufacturer's instructions (Miltenyi Biotech, USA Auburn Calif.). […]

C57BL/6 T cells [5] = test: Stimulation of T cells with anti-CD3 and CD28 in the presence of caffeine (annexin-V/CFSE flow cytometry); format: cell-based, mouse
Protocol: Cells were then labeled for 20 minutes with 2 μM 5(6)-Carboxyfluorescein diacetate N-succinimidyl ester (CFSE, Sigma-Aldrich) in Hank's balanced salt solution (HBSS, Mediatech, Herndon, Va.). Cells were plated at a concentration of 2-5×10^6/ml in Dulbecco's modified eagle's medium (DMEM (Mediatech) supplemented with 15% heat-inactivated fetal calf serum (Sigma-Aldrich, St. […] Cells were treated with 1 μg/ml anti-CD3 antibody (2C11 (30)) and 1 μg/ml anti-CD28 antibody (37.51, Gross, et al., J. Immunol. 149:380 (1992)). […] For studies of Atm−/− T cell proliferation in response to mitogens, purified T cells were cultured with 2 μg/ml Concanavalin A or 10 ng/ml PMA and 1 μg/m ionomycin. Stimulation of T cells in the Presence of Caffeine: […] Some cultures were, in addition, treated with 2 mM N-acetyl cysteine (Sigma-Aldrich). Flow Cytometry: Cells were harvested, washed in HBSS and stained with Annexin-V phycoerythrin (BD Biosciences), or Annexin V-biotin (R&D Systems) in addition to streptavidin conjugated phycoerythrin according to the manufacturer's instructions. Cells were then stained with anti-CD4-APC (RM4-5, BD Biosciences) or anti-CD8-APC (53-6.7 BD Biosciences) and 7-actinomycin D (Sigma-Aldrich) or propidium iodide (Sigma-Aldrich). All analysis was performed using. FloJo software (TreeStar Inc).

ATR = ATR (Homo sapiens, UniProt Q13535); conditions: 3 mM caffeine; cited from earlier work
ATM = ATM (Homo sapiens, UniProt Q13315); conditions: cited from earlier work
Sequence of ATM (Q13315 whole entry, species assumed): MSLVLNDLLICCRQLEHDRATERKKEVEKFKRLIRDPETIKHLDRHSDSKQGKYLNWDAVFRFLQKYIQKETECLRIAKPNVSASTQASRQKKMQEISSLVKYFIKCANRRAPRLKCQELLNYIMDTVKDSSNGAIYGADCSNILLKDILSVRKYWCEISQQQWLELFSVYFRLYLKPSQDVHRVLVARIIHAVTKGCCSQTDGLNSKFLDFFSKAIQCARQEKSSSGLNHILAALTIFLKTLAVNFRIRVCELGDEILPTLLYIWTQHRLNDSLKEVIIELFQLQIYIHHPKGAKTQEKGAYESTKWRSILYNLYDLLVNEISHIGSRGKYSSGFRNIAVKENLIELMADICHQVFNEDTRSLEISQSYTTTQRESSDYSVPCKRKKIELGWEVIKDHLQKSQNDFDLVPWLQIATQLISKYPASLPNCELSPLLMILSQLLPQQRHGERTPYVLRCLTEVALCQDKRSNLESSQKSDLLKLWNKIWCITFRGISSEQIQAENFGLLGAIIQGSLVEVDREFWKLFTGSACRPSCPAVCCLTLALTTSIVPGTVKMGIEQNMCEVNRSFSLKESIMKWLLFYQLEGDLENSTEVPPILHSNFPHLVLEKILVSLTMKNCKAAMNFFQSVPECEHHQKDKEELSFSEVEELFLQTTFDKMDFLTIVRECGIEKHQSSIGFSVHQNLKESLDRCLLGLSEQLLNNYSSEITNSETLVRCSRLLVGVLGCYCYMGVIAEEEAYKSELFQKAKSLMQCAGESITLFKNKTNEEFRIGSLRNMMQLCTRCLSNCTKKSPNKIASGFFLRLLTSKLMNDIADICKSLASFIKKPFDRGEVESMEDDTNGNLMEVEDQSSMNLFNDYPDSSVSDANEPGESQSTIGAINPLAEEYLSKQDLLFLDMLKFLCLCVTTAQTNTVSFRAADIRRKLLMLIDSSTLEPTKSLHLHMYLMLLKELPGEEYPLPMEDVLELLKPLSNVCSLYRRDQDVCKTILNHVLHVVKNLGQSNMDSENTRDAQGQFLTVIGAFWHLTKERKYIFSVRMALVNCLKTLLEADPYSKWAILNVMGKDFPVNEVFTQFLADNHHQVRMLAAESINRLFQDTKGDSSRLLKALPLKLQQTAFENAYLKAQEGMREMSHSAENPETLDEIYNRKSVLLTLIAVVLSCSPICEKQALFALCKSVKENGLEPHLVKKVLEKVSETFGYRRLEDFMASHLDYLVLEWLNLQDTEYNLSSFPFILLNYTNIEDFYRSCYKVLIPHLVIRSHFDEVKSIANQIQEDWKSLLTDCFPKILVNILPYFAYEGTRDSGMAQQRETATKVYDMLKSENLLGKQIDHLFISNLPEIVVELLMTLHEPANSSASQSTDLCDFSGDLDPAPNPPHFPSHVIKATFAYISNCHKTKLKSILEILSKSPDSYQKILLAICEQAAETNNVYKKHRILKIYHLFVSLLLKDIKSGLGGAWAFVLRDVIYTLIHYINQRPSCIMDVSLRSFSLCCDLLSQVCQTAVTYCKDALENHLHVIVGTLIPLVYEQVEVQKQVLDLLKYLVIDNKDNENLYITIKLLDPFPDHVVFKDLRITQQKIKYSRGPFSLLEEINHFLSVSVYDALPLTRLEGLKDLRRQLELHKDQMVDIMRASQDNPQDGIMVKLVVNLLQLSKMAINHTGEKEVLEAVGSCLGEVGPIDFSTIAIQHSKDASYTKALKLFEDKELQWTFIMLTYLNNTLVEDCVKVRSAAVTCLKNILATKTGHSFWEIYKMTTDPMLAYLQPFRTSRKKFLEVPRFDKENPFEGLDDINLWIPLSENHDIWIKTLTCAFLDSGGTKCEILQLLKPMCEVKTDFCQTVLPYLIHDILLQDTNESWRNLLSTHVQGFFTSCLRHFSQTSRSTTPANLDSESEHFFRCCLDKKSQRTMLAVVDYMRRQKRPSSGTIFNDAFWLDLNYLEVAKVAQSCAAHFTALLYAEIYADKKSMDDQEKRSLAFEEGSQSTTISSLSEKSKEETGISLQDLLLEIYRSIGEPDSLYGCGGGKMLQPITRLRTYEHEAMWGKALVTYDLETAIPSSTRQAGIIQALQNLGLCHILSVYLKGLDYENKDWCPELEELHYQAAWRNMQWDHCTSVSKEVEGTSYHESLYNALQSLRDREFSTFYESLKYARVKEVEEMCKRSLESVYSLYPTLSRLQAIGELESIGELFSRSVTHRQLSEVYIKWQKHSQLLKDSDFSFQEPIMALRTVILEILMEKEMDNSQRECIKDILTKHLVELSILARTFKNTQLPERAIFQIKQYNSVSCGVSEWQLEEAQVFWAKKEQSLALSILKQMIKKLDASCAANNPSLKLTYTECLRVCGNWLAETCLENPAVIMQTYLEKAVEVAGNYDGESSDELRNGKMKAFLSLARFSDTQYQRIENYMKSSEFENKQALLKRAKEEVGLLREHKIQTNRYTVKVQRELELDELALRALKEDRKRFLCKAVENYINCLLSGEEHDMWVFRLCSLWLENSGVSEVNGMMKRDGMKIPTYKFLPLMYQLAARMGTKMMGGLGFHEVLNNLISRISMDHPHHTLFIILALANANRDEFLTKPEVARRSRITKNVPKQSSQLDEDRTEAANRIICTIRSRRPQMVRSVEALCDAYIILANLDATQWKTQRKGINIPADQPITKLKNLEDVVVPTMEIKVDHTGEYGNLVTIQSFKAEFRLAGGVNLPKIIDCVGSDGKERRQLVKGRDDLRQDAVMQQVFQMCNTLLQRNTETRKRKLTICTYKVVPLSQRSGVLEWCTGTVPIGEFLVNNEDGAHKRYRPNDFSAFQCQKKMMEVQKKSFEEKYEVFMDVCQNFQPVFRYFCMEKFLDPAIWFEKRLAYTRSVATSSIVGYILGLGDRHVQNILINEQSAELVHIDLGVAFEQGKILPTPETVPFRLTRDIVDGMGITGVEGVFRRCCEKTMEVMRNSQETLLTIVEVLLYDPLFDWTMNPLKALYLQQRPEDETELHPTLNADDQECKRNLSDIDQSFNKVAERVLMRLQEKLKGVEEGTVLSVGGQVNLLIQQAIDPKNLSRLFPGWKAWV

[6] = C57BL/6 T cells stimulated with anti-CD3 and CD28

**Q.** What does the source list for `O=c1cc(-c2cccc3c2Sc2ccccc2S3)oc(N2CCOCC2)c1` [KU-55933, 2-morpholin-4-yl-6-thianthren-1-yl-pyran-4-one]?
**A.** inhibition of other PI-3 kinase-like kinase family members [1]: does not inhibit; animals surviving long-term ([2]; recipients of splenocytes treated ex vivo with allogeneic stimulators and KU55933, given 48 hours after BMT): three out of four; development of GVHD (time) ([2]; recipients of unstimulated splenocytes treated with KU55933): 30 to 40 days; production of IL-2, IFN-g and IL-4 in response to alloantigen (alloreactive T cells): fail to produce these cytokines; ionizing-radiation-dependent phosphorylation of known ATM targets [3]: abrogation; T cell proliferation versus untreated controls (C57BL/6 T cells [4]; 20 μM KU-55933, 48 and 72 hours after stimulation): significantly less proliferation; effect on cell viability (C57BL/6 T cells [4]; 20 μM KU-55933, 24 hours, anti-CD3 and CD28): no effect; KU-55933 concentration (as low as) that induced T cell apoptosis (C57BL/6 T cells [4]; [6]): 10 µM; response of normal T cells exposed to anti-CD3 and anti-CD28 (C57BL/6 T cells [4]; exposed to KU-55933): undergo apoptosis; frequency of T cells undergoing apoptosis with increasing concentration (C57BL/6 T cells [4]; increasing KU-55933 concentration, anti-CD3 and CD28): dose dependent increase

**Q.** Which “proliferation of Atm deficient T cells, effect of NAC” value (Atm deficient T cells) does the source give for `CC(=O)N[C@@H](CS)C(=O)O` [NAC, N-acetyl cysteine] here?
**A.** restored the ability of Atm deficient T cells to undergo proliferation

**Q.** What about the “apoptosis induced in the presence of KU-55933, effect of NAC” value (C57BL/6 T cells [4]; NAC added (4 mM per method), 20 μM KU-55933, anti-CD3 and CD28, normal T cells) of the same molecule?
**A.** prevented

**Q.** And the “apoptosis induced in the presence of caffeine, effect of NAC” value (C57BL/6 T cells [5]; 2 mM NAC added, 2.5 mM caffeine, anti-CD3 and CD28, normal T cells)?
**A.** prevented

**Q.** Which “inhibition of ATR function” value (ATR) does the source give for `Cn1c(=O)c2c(ncn2C)n(C)c1=O` [caffeine] here?
**A.** 50%

**Q.** What about the “ATM function in vitro” value (ATM; 1 mM caffeine) of the same molecule?
**A.** inhibit ATM

**Q.** And the “inhibition of ATM function” value (ATM; 3 mM caffeine)?
**A.** 50%

**Q.** And the “T cells remaining annexin-V negative” value (C57BL/6 T cells [5]; 2.5 mM caffeine, 48 and 72 hours after stimulation)?
**A.** only T cells which did not divide remained annexin-V negative

**Q.** What about the “effect on cell viability” value (C57BL/6 T cells [5]; 2.5 mM caffeine, 24 hours, anti-CD3 and CD28) of the same molecule?
**A.** no effect

**Q.** What about the “caffeine concentration (as low as) that induced T cell apoptosis” value (C57BL/6 T cells [5]; [6]) of the same molecule?
**A.** 1 mM

**Q.** What about the “response of normal T cells exposed to anti-CD3 and anti-CD28” value (C57BL/6 T cells [5]; exposed to caffeine) of the same molecule?
**A.** undergo apoptosis

**Q.** What about the “frequency of T cells undergoing apoptosis with increasing concentration” value (C57BL/6 T cells [5]; increasing caffeine concentration, anti-CD3 and CD28) of the same molecule?
**A.** dose dependent increase
